Results on nine molecules are retold here after patent US20060063244A1, “Methods and composition for the production of orthogonal tRNA-aminoacyltRNA synthetase pairs” (The Scripps Research Institute, priority 2001, published 2006).

Residue numbers refer to the chain shown, from its start. In names and notes the source's numbering stands.

For data set [1], the system named is valine position in the native protein. The settings on record: edit-defective ValRS strain grown with Abu; cited from earlier work.
The target of data set [2] is T1, mutant TyrRS (Methanocaldococcus jannaschii, UniProt Q57834, D158A/E107T/L162P/N268S/Y32Q).
T1 construct: His6 (C); made in house
Nature of the data set: Pyrophosphate-exchange assay of adenylate formation. The format is biochemical, Methanococcus jannaschii. How it is done: (§1) Kinetics of adenylate formation of O-methyl-L-tyrosine and tyrosine with adenosine triphosphate (ATP) catalyzed by the mutant TyrRS were analyzed in vitro using a pyrophosphate-exchange assay at 37° C. For example, the mutant TyrRS gene with six histidines at its C-terminus was cloned into plasmid pQE-60 (Qiagen, CA) to generate plasmid pQE-mJYRS. Protein was purified by immobilized metal affinity chromatography according to manufacture's protocol (Qiagen, CA). Pyrophosphate (PPi) exchange was carried out at 37° C. in a reaction mixture containing 100 mM TrisHCl (pH7.5), 10 mM KF, 5 mM MgCl2, 2 mM ATP, 2 mM NaPPi, 0.1 mg/mL bovine serum albumin, approximately 0.01 μCi/μL [^32P]NaPPi, and various concentrations of tyrosine or O-methyl-L-tyrosine. Reactions were initiated with the addition of the purified mutant TyrRS, and aliquots were periodically taken and quenched with 0.2 M NaPPi, 7% perchloric acid, and 2% activated charcoal. The charcoal was filtered and washed with 10 mM NaPPi (pH2), then measured by scintillation counting to determine the ^32P levels in charcoal-adsorbed ATP. Values of kcat and Km were calculated by direct fitting of the Michaelis-Menten equation using nonlinear regression analysis.

Data set [3] deals with Escherichia coli. In words: Effect on growth of Escherichia coli host cells. The settings on record: 1 mM added to medium. The class given is cell-based.
In data set [4] the test system is amber nonsense codon. Nature of the data set: Fidelity of translation by analysis of dihydrofolate reductase containing the unnatural amino acid. The format is cell-based, Escherichia coli. The conditions noted are these: incorporation in response to amber nonsense codon. The source says: A unique transfer RNA (tRNA)-aminoacyl tRNA synthetase pair has been generated that expands the number of genetically encoded amino acids in Escherichia coli. When introduced into Escherichia coli, this pair leads to the in vivo incorporation of the synthetic amino acid O-methyl-L-tyrosine, added exogenously to the growth medium, into protein in response to an amber nonsense codon. The fidelity of translation is greater than 99%, as determined by analysis of dihydrofolate reductase containing the unnatural amino acid. This approach provides a general method for increasing the genetic repertoire of living cells to include a variety of amino acids with novel structural, chemical and physical properties not found in the common twenty amino acids.

Data set [5] relates to yeast PheRS / Escherichia coli PheRS. The conditions noted are these: cited from earlier work.
For data set [6], the system named is E. coli cells. Nature of the data set: LC/MS analysis of toluenized E. coli cells grown with unnatural amino acid. The class given is cell-based. The conditions noted are these: E. coli grown in the presence of the amino acid. The text has this: Generality of aminoacyl tRNA synthetase evolution. […] The enzyme can be evolved to accommodate a variety of functionalities in place of the phenol side chain of tyrosine and can do so with high selectivity. […] It was not possible to identify an enzyme variant that could accept the pCF unnatural amino acid. A second attempt to evolve a synthetase to accept the pCF amino acid was also unsuccessful.

Data set [7] has as its system COc1ccc(C[C@H](N)C(=O)O)cc1. Nature of the data set: Pyrophosphate-exchange assay of adenylate formation. The format is biochemical, Methanococcus jannaschii. The conditions noted are these: other: mutant TyrRS, 37° C. How it is done:
as §1

Data set [8] relates to N[C@@H](Cc1ccc(O)cc1)C(=O)O. The description is as above. The format is biochemical, Methanococcus jannaschii. The conditions noted are these: other: mutant TyrRS, 37° C. As for the experimental part: as §1
The test system of data set [9] is Escherichia coli total tRNA / purified tRNA from Halobacterium. In words: In vitro aminoacylation by archaeal leucyl-tRNA synthetases. The class given is biochemical. How it is done:
The next step involved determination of a synthetase that charges the suppressor tRNA without interacting with host tRNA. The two chosen systems, Methanobacterium thermoautotrophicum and Methanococcus jannaschii were expressed, and aminoacylation was performed in vitro on purified tRNA from Halobacterium as a positive control, and for Escherichia coli total tRNA.

A short description of data set [10]: In vitro aminoacylation with leucine and methionine by editing-domain mutants of Methanobacterium thermoautotrophicum RS. The format is biochemical. The text has this:
Next, point mutations were made in the editing domain. The catalytic core of the editing domain is well conserved across species and even for different amino acids, at least for the family of branched chain amino acids. Several of these conserved sites have previously been mutated, for example a T→P mutation, and found to knock out editing function. Mutants of Methanobacterium thermoautotrophicum RS were constructed that were similar to several known mutants, and also a 20 member NNK library derived from T214 was made. Proteins were expressed and examined in vitro for aminoacylation with leucine and methionine. None of the previously identified mutations were transferable to our system, but a desirable mutation was identified from the T214 library.

T1 sequence (Q57834 whole entry Y32Q/E107T/D158A/L162P/N268S): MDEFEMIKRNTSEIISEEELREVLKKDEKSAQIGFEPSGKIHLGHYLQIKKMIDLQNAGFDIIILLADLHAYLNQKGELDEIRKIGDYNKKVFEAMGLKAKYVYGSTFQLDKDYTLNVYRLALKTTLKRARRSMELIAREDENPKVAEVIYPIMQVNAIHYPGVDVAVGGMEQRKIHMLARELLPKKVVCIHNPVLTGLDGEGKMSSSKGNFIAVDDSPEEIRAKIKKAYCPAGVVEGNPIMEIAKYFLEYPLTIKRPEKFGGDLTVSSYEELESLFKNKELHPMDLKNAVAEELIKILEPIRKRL

In the case of `CCC(N)C(=O)O` (centres unmarked) [Abu, aminobutyrate], the “valines replaced at each valine position” value in data set [1] was “about 24%”.
Turning to `COc1ccc(C[C@H](N)C(=O)O)cc1` [O-methyl-L-tyrosine], the “kcat/Km relative to tyrosine” value in data set [2] was “about 100 fold”. In addition, the “effect on growth rate of Escherichia coli” value in data set [3] is given as “does not significantly affect the growth rate”. The fidelity of translation entry in data set [4] is “greater than 99%”.
As for `N[C@@H](Cc1ccc(F)cc1)C(=O)O` [p-F-Phe, p-fluorophenylalanine], in data set [5], the “share found at the Phe codon positions” value is given as 7%. Also, in data set [5] (excess p-F-Phe in growth media), the “share at the mutagenesis site” value is reported as 64-75%.
As to `N[C@@H](Cc1ccc(C(=O)O)cc1)C(=O)O` [pCF, p-Carboxyl-Phenylalanine], the “detection in cells by LC/MS” value in [6] is “could not be detected”.
In the case of `N[C@@H](Cc1ccc(O)cc1)C(=O)O` [tyrosine], in data set [2], the “Km relative to O-methyl-L-tyrosine” value is listed as “approximately 13 fold” and the “kcat relative to O-methyl-L-tyrosine” value was “eight fold less”.
One may read the Km as the substrate concentration at which the rate is half of its maximum. For “mutant TyrRS (Methanocaldococcus jannaschii DSM 2661; D158A/E107T/L162P/N268S/Y32Q)”, in data set [7], the Km is 0.443 ± 0.093 mM and the kcat is 14±1×10^−3 s^−1. Also, in [8], the Michaelis constant (Km) was 5.833 ± 0.902 mM and the kcat is reported as 1.8±0.2×10^−3 s^−1.

B1: Methanococcus jannaschii synthetase: leucyl tRNA synthetase cloned from Methanococcus jannaschii (protein, UniProt Q58050 1-942, looked up)
Leucine--tRNA ligase: MMVMIDFKEIEKKWQKRWEEAKIFEANPDDREKFFITAAFPYLNGVLHAGHLRTFTIPEVVARFQRMKNKNVLWTFGYHVTGTPILGLAELIKNRDEKTIWAYTELHGIPKEELLELTTPEKIVEYFSKKAEEAFKRMGFSLDWRRNFKTDDKVFNKFIEWQFHKLKEKGLIVKGSHPVRYCPRCDNPVEDHDILVGENATLVEYILIKFTTEDGCIMPMATLRPETVFGVTNVWVNPEATYVKAKVYLEKETENGIELIENGIWIMAKECAEKLKHQDRKIEIIEEFKGEQLINKKVKNPVTGKEVPILPAKFVKTNIGTGCVMSVPAHAPYDYIALRDLGLVDEIGLIPLINVPGYGKYPAKEIVEKMGIKSQEEEDKLEEATKKIYKDEFHKGVLNENCLDYEGIPVREIKDKLTKDLIDKGLAEIMYEFSEEKVICRCGTPCIVKMVKGQWFIKYSDEKWKELAHKCIDKMRFIPENLRQVFHEKIDWMKDKACVRRRGLGTKFPFEEGWVIESLSDSTIYPAYYTVAKYINQHNIKPEQLTLELFDYVFLGKGDVDKIAKETGIPKDIIEGMRKEFIYYYPVDWRCSAKDLIPNHLTFYIFNHVAIFPEEFWPRGIVVNGYVTIEGKKLSKSKGPVLPVLEVAEKFGADVGRFYITTCAELPQDADIKFKEMENTKKVLERLYLFAKEIAERRGETGEEFSYIDKWLLSRLYKAVKQYDEYMENFELRKAGILLYQLLDDLKWYRRRGGNNIRVLEEFLEVIIKLMMPFTPHLCEEMWEILGKEGFVSLAKFPEVKEEFINDEIEKGEEYLKAVMEDIKEIINVAKVQPKRIYLYTADDWKYEILKIIKENEGKTIKELMPIIMKNPEFRKYGKEIPKLVNQLIKLNAEIINEVEVLENAKEFLKKEVGVEDIIINGEDKANKKRVAIPFKPAIYLE
As to B1, in data set [9], the “charging of Escherichia coli total tRNA versus Halobacterium tRNA” value was “able to effectively charge Escherichia coli tRNA”.

B2: Methanobacterium thermoautotrophicum synthetase: leucyl-tRNA synthetase from Methanobacterium thermoautotrophicum (protein, UniProt O27552 1-937, looked up)
Leucine--tRNA ligase: MDIERKWRDRWRDAGIFQADPDDREKIFLTVAYPYPSGAMHIGHGRTYTVPDVYARFKRMQGYNVLFPMAWHVTGAPVIGIARRIQRKDPWTLKIYREVHRVPEDELERFSDPEYIVEYFSREYRSVMEDMGYSIDWRREFKTTDPTYSRFIQWQIRKLRDLGLVRKGAHPVKYCPECENPVGDHDLLEGEGVAINQLTLLKFKLGDSYLVAATFRPETIYGATNLWLNPDEDYVRVETGGEEWIISRAAVDNLSHQKLDLKVSGDVNPGDLIGMCVENPVTGQEHPILPASFVDPEYATGVVFSVPAHAPADFIALEDLRTDHELLERYGLEDVVADIEPVNVIAVDGYGEFPAAEVIEKFGVRNQEDPRLEDATGELYKIEHARGVMSSHIPVYGGMKVSEAREVIADELKDQGLADEMYEFAERPVICRCGGRCVVRVMEDQWFMKYSDDAWKDLAHRCLDGMKIIPEEVRANFEYYIDWLNDWACSRRIGLGTRLPWDERWIIEPLTDSTIYMAYYTIAHRLREMDAGEMDDEFFDAIFLDDSGTFEDLREEFRYWYPLDWRLSAKDLIGNHLTFHIFHHSAIFPESGWPRGAVVFGMGLLEGNKMSSSKGNVILLRDAIEKHGADVVRLFLMSSAEPWQDFDWRESEVIGTRRRIEWFREFGERVSGILDGRPVLSEVTPAEPESFIGRWMMGQLNQRIREATRALESFQTRKAVQEALYLLKKDVDHYLKRVEGRVDDEVKSVLANVLHAWIRLMAPFIPYTAEEMWERYGGEGFVAEAPWPDFSDDAESRDVQVAEEMVQNTVRDIQEIMKILGSTPERVHIYTSPKWKWDVLRVAAEVGKLDMGSIMGRVSAEGIHDNMKEVAEFVRRIIRDLGKSEVTVIDEYSVLMDASDYIESEVGARVVIHSKPDYDPENKAVNAVPLKPAIYLE
Consider B2, for which the “charging of Escherichia coli total tRNA versus Halobacterium tRNA” value in data set [9] is given as “specific towards the Halobacterium tRNA”.

B3: T214Q: editing-domain point mutant of Methanobacterium thermoautotrophicum leucyl-tRNA synthetase (protein, UniProt O27552 1-937, looked up, variant T214Q)
Leucine--tRNA ligase: B2 Leucine--tRNA ligase with T214Q
As to B3, in data set [10], the charging with leucine entry was “capable of charging with leucine” and the charging with methionine entry was “capable of charging methionine”.
